Reference: US7122523B2, “Methods for inhibiting tumor cell proliferation” (University of Southern California, priority 2001, dated 2006)

Legend:
Format in all cases: cell-based
Ovarian adenocarcinoma = experiment: Human tumor cell clonigenic assay (tritiated thymidine incorporation); conditions: for Effect of AII(1–7) on proliferation: AII(1–7) 0.1 ng/ml–10 μg/ml; for IC50 (ng/ml) of AII(1–7): proliferation
Method: (§1) Primary and metastatic tumors obtained from the Department of Obstetrics and Gynecology Pathology Section and the Surgical Pathology Division of Los Angeles County/University of Southern California were minced into pieces less than 2 mm in diameter in the presence of RPMI-1640 (Gibco, Grand Island, NTY) containing 15% heat-inactivated fetal calf serum. Each gram of tumor tissue was treated with 10–20 mL of enzyme medium, consisting of Hanks' balanced salt solution with 0.03% DNAse (500 Kunitz units/mL; Sigma Chemical Co., St. Louis, Mo.) and 0.14% collagenase type I (Sigma). Tumor fragments were stirred for 90 minutes at 37° C. in the presence of 5% CO2. After enzymatic digestion, the free cells were decanted through 40-gauge mesh strainers and centrifuged at 200×g for 10 minutes. The supernatant was removed and viable cells were resuspended in RPMI 1640. The cell number was determined using a hematocytometer and 0.04% trypan blue dye. The cells were then centrifuged and the pellet resuspended in RPMI 1640 at 5×10^5 cells/mL.
(§2) Human cancer cells were obtained from operative specimens provided by the Division of Gynecologic Oncology, Department of Obstetrics and Gynecology, or the Department of Surgical Pathology of Los Angeles County/University of Southern California School of Medicine. Tumor cells were maintained in vitro in RPMI 1640 medium supplemented with 15% heat-inactivated fetal calf serum, 100 μg/mL streptomycin, fungizone 25 μg/mL, and 100 μ/mL penicillin.
(§3) Cells were cultured on an underlayer of 0.5% agarose (Bethesda Research Labs, Bethesda, Md.) prepared from a 3% stock of agarose with added penicillin (100 units/mL), streptomycin (100 μg/mL), and fungizone (1.25 μg/mL) (GIBCO) as per a modification of an established procedure. The cloning efficiency of this assay varied depending upon the source of the tissue. One milliliter of this 0.5% agarose mixture was added to each 16×16-mm well of a 24-well plate and the plates were refrigerated for 10 minutes at 4° C. Cells were suspended in 0.6% agarose in RPMI-1640 supplemented with antibiotics and 15% fetal calf serum. One aliquot (0.5 mL) of cell suspension was added to each underlaver at a final concentration of 5×10^4 cells/well, and the plates were refrigerated 10 minutes at 4° C.
(§4) After a 72-hour incubation at 37° C., 5 μCi of tritiated thymidine (specific activity 18.2 Ci/mmol; New England Nuclear, Boston, Mass.) was layered over each well, and the plates were returned to the incubator for an additional 24 hours, incorporation of thymidine was terminated by transferring the agarose layers to 10-mL glass centrifuge tubes (Kimble, Division of Owens, Ill.) and boiling the tubes for 15 minutes in a water bath. The volume was brought to 8 mL, the tubes were centrifuged, and the pellets were washed with phosphate-buffered saline and then dissolved in 3 mL of 0.85 N KOH for 1 hour at 80° C. The tubes were cooled on ice and the hydrolysates were precipitated by adding 30 μL of 1% human serum albumin (Sigma) and 2.4 mL of ice-cold trichloroacetic acid. After overnight storage at 4° C., precipitates were collected by centrifugation. Pellets were washed with 5% trichloroacetic acid, dissolved in 0.3 mL of 0.075 N KOH, and transferred to scintillation vials to which 5 mL of Liquiscint (National Diagnostics, Somerville, N.J.) were added. Radioactivity per vial was measured in a Nuclear-Chicago liquid scintillation counter.

[1] = system: Metastatic colon adenocarcinoma; experiment: as above; conditions: Sample 26, Metastatic colon adenocarcinoma; AII(1–7) 0.1 ng/ml–10 μg/ml
Method: as §1, §2, §3, §4

[2] = system: Cystic poorly differentiated endometroid carcinoma of ovary; experiment: as above; conditions: Sample 30, Cystic poorly differentiated endometroid carcinoma of ovary; AII(1–7) 0.1 ng/ml–10 μg/ml
Method: as §1, §2, §3, §4

[3] = system: Ovarian Serous papillary carcinoma; experiment: as above; conditions: Sample 31, Ovarian Serous papillary carcinoma
Method: as §1, §2, §3, §4

[4] = system: Ovarian carcinoma-clear cell; experiment: as above; conditions: Sample 3, Ovarian carcinoma-clear cell; AII(1–7) 0.1 ng/ml–10 μg/ml
Method: as §1, §2, §3, §4

[5] = system: Recurrent moderately differentiated colonic adenocarcinoma; experiment: as above; conditions: Sample 19, Recurrent moderately differentiated colonic adenocarcinoma; AII(1–7) 0.1 ng/ml–10 μg/ml
Method: as §1, §2, §3, §4

[6] = system: Invasive, moderately differentiated adenocarcinoma of colon; experiment: as above; conditions: Sample 29, Invasive, AII(1–7) 0.1 ng/ml–10 μg/ml
Method: as §1, §2, §3, §4

Breast adenocarcinoma = experiment: as above; conditions: for Effect of AII(1–7) on proliferation: AII(1–7) 0.1 ng/ml–10 μg/ml; for IC50 (ng/ml) of AII(1–7): proliferation
Method: as §1, §2, §3, §4

[7] = system: Metastatic, recurrent moderately to poorly differentiated colonic adenocarcinoma; experiment: as above; conditions: Sample 34, Metastatic, AII(1–7) 0.1 ng/ml–10 μg/ml
Method: as §1, §2, §3, §4

[8] = system: Ovarian Cancer-High Grade Clear Cell Carcinoma; experiment: as above; conditions: Sample 16, Ovarian Cancer-High Grade Clear Cell Carcinoma; AII(1–7) 0.1 ng/ml–10 μg/ml
Method: as §1, §2, §3, §4

[9] = system: Ovarian papillary serous carcinoma; experiment: as above; conditions: Sample 2, Ovarian papillary serous carcinoma
Method: as §1, §2, §3, §4

Colon adenocarcinoma = experiment: as above; conditions: Sample 25, Colon adenocarcinoma
Method: as §1, §2, §3, §4

[10] = system: Squamous Cell Carcinoma of the Cervix, gr 3; experiment: as above; conditions: Sample 12, Squamous Cell Carcinoma of the Cervix, AII(1–7) 0.1 ng/ml–10 μg/ml
Method: as §1, §2, §3, §4

[11] = system: Serous tumor of low malignant potential; experiment: as above; conditions: Sample 6, Serous tumor of low malignant potential; AII(1–7) 0.1 ng/ml–10 μg/ml
Method: as §1, §2, §3, §4

[12] = system: Cervical squamous cell carcinoma; experiment: as above
Method: as §1, §2, §3, §4

[13] = system: Metastatic Ovarian Papillary Carcinoma to Omentum; experiment: as above; conditions: Sample 13, Metastatic Ovarian Papillary Carcinoma to Omentum; AII(1–7) 0.1 ng/ml–10 μg/ml
Method: as §1, §2, §3, §4

Leiomyosarcoma = experiment: as above; conditions: Sample 1, Leiomyosarcoma; AII(1–7) 0.1 ng/ml–10 μg/ml
Method: as §1, §2, §3, §4

[14] = system: Metastatic uterine carcinosarcoma to the ovary; experiment: as above; conditions: Sample 5, Metastatic uterine carcinosarcoma to the ovary; AII(1–7) 0.1 ng/ml–10 μg/ml
Method: as §1, §2, §3, §4

[15] = system: Endometrial adenocarcinoma; experiment: as above; conditions: for Effect of AII(1–7) on proliferation: AII(1–7) 0.1 ng/ml–10 μg/ml; for IC50 (ng/ml) of AII(1–7): proliferation
Method: as §1, §2, §3, §4

Uterine Carcinosarcoma = experiment: as above; conditions: Sample 17, Uterine Carcinosarcoma; AII(1–7) 0.1 ng/ml–10 μg/ml
Method: as §1, §2, §3, §4

[16] = system: Colonic adenocarcinoma, Gr 3–4, moderately to poorly differentiated; experiment: as above; conditions: Sample 36, Colonic adenocarcinoma
Method: as §1, §2, §3, §4

[17] = system: Human Primary Tumor Cells; experiment: Clonigenic assay, Chi Square analysis of tumor-type specificity over all samples
Method: as §1, §2, §3, §4

[18] = Sample 27, Ovarian adenocarcinoma
[19] = Sample 32, Ovarian adenocarcinoma
[20] = Sample 7, Breast adenocarcinoma
[21] = Sample 10, Breast adenocarcinoma
[22] = Sample 20, Breast adenocarcinoma
[23] = Sample 21, Breast adenocarcinoma
[24] = Sample 24, Breast adenocarcinoma
[25] = Sample 28, Breast adenocarcinoma
[26] = Sample 4, Endometrial adenocarcinoma
[27] = Sample 8, Endometrial adenocarcinoma
[28] = Sample 11, Endometrial adenocarcinoma
[29] = Sample 18, Endometrial adenocarcinoma
[30] = Sample 22, Endometrial adenocarcinoma
[31] = Sample 23, Endometrial adenocarcinoma

SMILES: CC[C@H](C)[C@H](NC(=O)[C@H](Cc1ccc(O)cc1)NC(=O)[C@@H](NC(=O)[C@H](CCCNC(=N)N)NC(=O)[C@@H](N)CC(=O)O)C(C)C)C(=O)N[C@@H](Cc1c[nH]cn1)C(=O)N1CCC[C@H]1C(=O)O [AII(1–7), Asp-Arg-Val-Tyr-Ile-His-Pro]
- Effect of AII(1–7) on proliferation (Ovarian adenocarcinoma; [18]): Decreased
- IC50 (ng/ml) of AII(1–7) (Ovarian adenocarcinoma; [18]): 3.6 ng/mL
- Effect of AII(1–7) on proliferation (Ovarian adenocarcinoma; [19]): Decreased
- IC50 (ng/ml) of AII(1–7) (Ovarian adenocarcinoma; [19]): 3.4 ng/mL
- Effect of AII(1–7) on proliferation (Ovarian adenocarcinoma; Sample 33, Ovarian adenocarcinoma): No Effect
- Effect of AII(1–7) on proliferation [1]: Variable
- Effect of AII(1–7) on proliferation [2]: No Effect
- Effect of AII(1–7) on proliferation ([3]; AII(1–7) 0.1 ng/ml–10 μg/ml): Decreased
- IC50 (ng/ml) of AII(1–7) ([3]; proliferation): 2.34 ng/mL
- Effect of AII(1–7) on proliferation [4]: No Effect
- Effect of AII(1–7) on proliferation [5]: No Effect
- Effect of AII(1–7) on proliferation [6]: No Effect
- Effect of AII(1–7) on proliferation (Breast adenocarcinoma; [20]): Decreased
- IC50 (ng/ml) of AII(1–7) (Breast adenocarcinoma; [20]): 2.73 ng/mL
- Effect of AII(1–7) on proliferation (Breast adenocarcinoma; [21]): No Effect
- IC50 (ng/ml) of AII(1–7) (Breast adenocarcinoma; [21]): No Effect
- Effect of AII(1–7) on proliferation (Breast adenocarcinoma; [22]): Decreased
- IC50 (ng/ml) of AII(1–7) (Breast adenocarcinoma; [22]): 0.3 ng/mL
- Effect of AII(1–7) on proliferation (Breast adenocarcinoma; [23]): No Effect
- IC50 (ng/ml) of AII(1–7) (Breast adenocarcinoma; [23]): No Effect
- Effect of AII(1–7) on proliferation (Breast adenocarcinoma; [24]): Decreased
- IC50 (ng/ml) of AII(1–7) (Breast adenocarcinoma; [24]): 4.25 ng/mL
- Effect of AII(1–7) on proliferation (Breast adenocarcinoma; [25]): Decreased
- IC50 (ng/ml) of AII(1–7) (Breast adenocarcinoma; [25]): 2.97 ng/mL
- Effect of AII(1–7) on proliferation [7]: No Effect
- Effect of AII(1–7) on proliferation [8]: No Effect
- Effect of AII(1–7) on proliferation ([9]; AII(1–7) 0.1 ng/ml–10 μg/ml): Decreased
- IC50 (ng/ml) of AII(1–7) ([9]; proliferation): 3.0 ng/mL
- Effect of AII(1–7) on proliferation (Colon adenocarcinoma; AII(1–7) 0.1 ng/ml–10 μg/ml): Decreased
- IC50 (ng/ml) of AII(1–7) (Colon adenocarcinoma; proliferation): 4.75 ng/mL
- Effect of AII(1–7) on proliferation [10]: No Effect
- Effect of AII(1–7) on proliferation [11]: No Effect
- IC50 (ng/ml) of AII(1–7) ([12]; Sample 37, Cervical squamous cell adenocarcinoma, proliferation): 2.73 ng/mL
- Effect of AII(1–7) on proliferation ([12]; Sample 37, Cervical squamous cell carcinoma, AII(1–7) 0.1 ng/ml–10 μg/ml): Decreased
- Effect of AII(1–7) on proliferation [13]: No Effect
- Effect of AII(1–7) on proliferation (Leiomyosarcoma): No Effect
- Effect of AII(1–7) on proliferation [14]: Equivocal
- Effect of AII(1–7) on proliferation [15, 26]: Decreased
- IC50 (ng/ml) of AII(1–7) [15, 26]: 1.0 ng/mL
- Effect of AII(1–7) on proliferation [15, 27]: Decreased
- IC50 (ng/ml) of AII(1–7) [15, 27]: 1.0 ng/mL
- Effect of AII(1–7) on proliferation ([15]; Sample 9, Endometrial adenocarcinoma): Decreased
- Effect of AII(1–7) on proliferation [15, 28]: No Effect
- IC50 (ng/ml) of AII(1–7) [15, 28]: No Effect
- Effect of AII(1–7) on proliferation [15, 29]: No Effect
- IC50 (ng/ml) of AII(1–7) [15, 29]: No Effect
- Effect of AII(1–7) on proliferation [15, 30]: Decreased
- IC50 (ng/ml) of AII(1–7) [15, 30]: 0.1 ng/mL
- Effect of AII(1–7) on proliferation [15, 31]: Decreased
- IC50 (ng/ml) of AII(1–7) [15, 31]: 4.0 ng/mL
- Effect of AII(1–7) on proliferation (Uterine Carcinosarcoma): No Effect
- Effect of AII(1–7) on proliferation ([16]; AII(1–7) 0.1 ng/ml–10 μg/ml): Decreased
- IC50 (ng/ml) of AII(1–7) ([16]; proliferation): 2.55 ng/mL
- tumors affected (proliferation decreased) ([17]; All adenocarcinoma: 14 decreased, 8 not affected): 63.6%
- tumors affected (proliferation decreased) ([17]; Breast infiltrating ductal adenocarcinoma: 4 decreased, 2 not affected): 66.7%
- tumors affected (proliferation decreased) ([17]; Uterine adenocarcinoma and breast infiltrating ductal adenocarcinoma: 9 decreased, 4 not affected): 69.2%
- tumors affected (proliferation decreased) ([17]; Uterine adenocarcinoma: 5 decreased, 2 not affected): 71.4%
- tumors with decreased proliferation ([17]; Uterine, ovarian and breast adenocarcinomas: 11 decreased, 5 not affected): 68.8%
- tumors affected (proliferation decreased) ([17]; remaining tumors not adenocarcinoma: 2 decreased, 10 not affected): 16.7%
- tumors affected (proliferation decreased) ([17]; remaining tumors not of breast infiltrating ductal adenocarcinoma origin: 12 decreased, 16 not affected): 42%
- tumors affected (proliferation decreased) ([17]; remaining tumors not of uterine adenocarcinoma origin: 11 decreased, 16 not affected): 40.7%
- tumors affected (proliferation decreased) ([17]; remaining tumors not of uterine or breast adenocarcinoma origin: 7 decreased, 14 not affected): 33.3%
- tumors with decreased proliferation ([17]; remaining tumors not of uterine, ovarian or breast adenocarcinoma origin: 5 decreased, 13 not affected): 27.8%
